Earlier results in EP4640076A1, “ORAL PRODUCT WITH FLAVOR EMULSION” (Nicoventures Trading Limited, priority 2024, dated 2025).
Where two headings read alike, the source gives them in different places.

Tests used:
[1] = at 25°C; heptanal

| Compound | logP (resveratrol) | vapor pressure [1] | logP (heptanal) |
| --- | --- | --- | --- |
| Oc1ccc(/C=C/c2cc(O)cc(O)c2)cc1 [Resveratrol, 3,5,4'-trihydroxy-trans-stilbene] | 3.1 |  |  |
| CCCCCCC=O [heptanal] |  | 3.85 mm Hg | 2.44 |
